The text below walks through data of US20260034119A1, “5-METHOXY-N,N-[…][…], THEIR […], AND METHODS FOR TREATMENT OF NEUROLOGICAL, […], AND SUBSTANCE USE DISORDERS” (priority 2023, published 2026).

Usually Emax stands for the greatest response seen or fitted, relative to the assay's reference. As usually defined, the EC50 is the concentration at which the effect is half-maximal. High values mean weaker potency, low ones greater potency.

Each structure is given as a SMILES string. Several values for one entry are separate records, joined by “and”; a condition that tells them apart may be missing. Equal entries are not always repeated. Where two headings read alike, the source gives them in different places.

In assay [1] the target is T1, human 5-HT1A (Homo sapiens, UniProt P08908).
T1 sequence (P08908 1-422): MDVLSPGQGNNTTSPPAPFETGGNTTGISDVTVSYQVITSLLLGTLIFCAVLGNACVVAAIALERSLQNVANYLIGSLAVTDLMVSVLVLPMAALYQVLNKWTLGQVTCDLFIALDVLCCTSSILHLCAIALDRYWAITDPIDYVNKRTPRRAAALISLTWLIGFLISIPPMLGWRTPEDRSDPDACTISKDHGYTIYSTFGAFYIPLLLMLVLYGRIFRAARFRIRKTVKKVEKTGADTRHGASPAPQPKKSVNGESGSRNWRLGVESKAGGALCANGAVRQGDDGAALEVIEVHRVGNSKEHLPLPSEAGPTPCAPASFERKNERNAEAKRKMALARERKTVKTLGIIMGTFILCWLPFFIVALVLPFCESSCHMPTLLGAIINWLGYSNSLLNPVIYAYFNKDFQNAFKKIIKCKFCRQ
In words: 5-HT1A-mediated cAMP reduction assay (GloSensor, HEK293-T). To be noted: for EC50: Table 2.

Assay [2] concerns the target T2, 5-HT1A (Homo sapiens, UniProt P08908). In words: BRET signaling assay: 5-HT1A-mediated activation of heterotrimeric Gi1 (TRUPATH, HEK293-T). For orientation: BRET reads energy transfer from a luciferase to a nearby fluorophore.
Another assay deals with 5-HT2A (Homo sapiens, UniProt P28223). The experiment in a line: cell-based.
In assay [3] the target is T2, 5-HT1A. The experiment in a line: cell-based.
The target in assay [4] is T1, human 5-HT1A. The experiment in a line: cell-based.
Where [5] appears, read: EC50 (nM) Mean BRET Gq-2A, Table 2.
Where [6] appears, read: EC50 (nM) Mean BRET Gi1-1A, Table 2.

Chain of 5-HT2A (P28223 whole entry): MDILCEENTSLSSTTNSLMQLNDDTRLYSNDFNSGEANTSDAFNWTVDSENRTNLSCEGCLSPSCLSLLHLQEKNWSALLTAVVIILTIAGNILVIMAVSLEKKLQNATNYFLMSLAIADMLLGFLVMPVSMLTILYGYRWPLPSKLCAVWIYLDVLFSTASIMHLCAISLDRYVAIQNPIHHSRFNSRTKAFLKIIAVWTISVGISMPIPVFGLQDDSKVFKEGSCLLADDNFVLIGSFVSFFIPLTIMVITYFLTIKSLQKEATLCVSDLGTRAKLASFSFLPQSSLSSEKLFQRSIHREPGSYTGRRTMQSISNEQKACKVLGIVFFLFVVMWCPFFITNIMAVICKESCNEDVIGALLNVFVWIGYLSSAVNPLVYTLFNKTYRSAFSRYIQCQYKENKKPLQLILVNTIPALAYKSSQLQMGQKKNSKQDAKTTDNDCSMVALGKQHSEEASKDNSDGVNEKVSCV

Regarding `O=C1CC2(CCCC2)CC(=O)N1CCCCN1CCN(c2ncccn2)CC1` [Buspirone, buspirone, reference compound], the “Efficacy as %5HT 5-HT1A cAMP” value at human 5-HT1A [1] (Table 6, commercial ligands) amounted to 96.0 %5HT. In addition, the maximal effect (Emax) on 5-HT1A [2] (HEK-293T, read-out: Emax, 5-HT1A-mediated activation of Gi1 (BRET)) was determined as 93.4%. The “Efficacy as %5HT 5-HT1A BRET Gi1” value on 5-HT1A [2] (Table 6, commercial ligands) worked out at 93.4 %5HT.
`COc1ccc2[nH]cc(CCN(C)C)c2c1F` [Compound 1]: the concentration for a half-maximal effect (EC50) was determined as 86.5 nM at 5-HT2A (setting [5]), 0.186 nM at human 5-HT1A [1] (pEC50 Gio(cAMP)-1A) and 1.77 nM on 5-HT1A [2] (EC50 (nM) Mean BRET Gi1-1A).
As for `CCN(C)CCc1c[nH]c2ccc(OC)c(F)c12` [Compound 2], the EC50 was 99.3 nM on 5-HT2A (setting [5]), 0.316 nM at human 5-HT1A [1] (pEC50 Gio(cAMP)-1A) and 1.77 nM at 5-HT1A [2] (setting [6]).
Regarding `CCN(CC)CCc1c[nH]c2ccc(OC)c(F)c12` [Compound 3], the EC50 on 5-HT2A (setting [5]) amounted to 673 nM; at human 5-HT1A [1] (EC50 (nM) Mean Gio(cAMP)-1A), 0.21 nM; at human 5-HT1A [1] (pEC50 Gio(cAMP)-1A) it was 0.204 nM; on 5-HT1A [2] (setting [6]) it was 3.18 nM.
For `CCCN(C)CCc1c[nH]c2ccc(OC)c(F)c12` [Compound 4], the EC50 at 5-HT2A (setting [5]) stood at 115 nM; on human 5-HT1A [1] (pEC50 Gio(cAMP)-1A) it was 0.417 nM; at 5-HT1A [2] (setting [6]), 3.06 nM.
In the case of `CCCN(CC)CCc1c[nH]c2ccc(OC)c(F)c12` [Compound 5], the values for the concentration for a half-maximal effect (EC50) at 5-HT2A (setting [5]), at human 5-HT1A [1] (pEC50 Gio(cAMP)-1A) and at 5-HT1A [2] (setting [6]) were 155 nM, 0.151 nM and 0.95 nM, respectively.
For `CCCN(CCC)CCc1c[nH]c2ccc(OC)c(F)c12` [Compound 6], the values for the half-maximal effective concentration (EC50) at 5-HT2A (setting [5]), at human 5-HT1A [1] (EC50 (nM) Mean Gio(cAMP)-1A) and at 5-HT1A [2] (setting [6]) were 142 nM, 1.31 nM and 3.7 nM, respectively.
The like results for `COc1ccc2[nH]cc(CCN(C)C(C)C)c2c1F` [Compound 7] were, in that order, 152 nM, 2.98 nM and 14.2 nM.
Consider `CCCN(CCc1c[nH]c2ccc(OC)c(F)c12)C(C)C` [Compound 8], for which the EC50 on 5-HT2A (setting [5]) was determined as 249 nM; at human 5-HT1A [1] (EC50 (nM) Mean Gio(cAMP)-1A), 5.96 nM; on human 5-HT1A [1] (pEC50 Gio(cAMP)-1A) it was 5.89 nM; at 5-HT1A [2] (setting [6]), 16.8 nM; on 5-HT1A [2] (pEC50 BRET Gi1-1A, Table 2), 16.6 nM.
In the case of `CCN(C)CCc1c[nH]c2ccc(OC)cc12` [Compound 9], the EC50 on 5-HT1A [3] stood at 25.9 nM; on 5-HT2A, 37.7 nM; on human 5-HT1A [4] it was 4.44 nM.
Take `COc1ccc2[nH]cc(CCN(C(C)C)C(C)C)c2c1F` [Compound 9]: the concentration giving a half-maximal response (EC50) on 5-HT2A (setting [5]) stood at 338 nM; at human 5-HT1A [1] (EC50 (nM) Mean Gio(cAMP)-1A), 6 nM; at 5-HT1A [2] (setting [6]) it was 35.8 nM.
The matching figures for `C=CCN(C)CCc1c[nH]c2ccc(OC)c(F)c12` [Compound 10]: 156 nM, 2.57 nM and 8.41 nM.
`CCCN(C)CCc1c[nH]c2ccc(OC)cc12` [Compound 10]: the concentration giving a half-maximal response (EC50) at 5-HT1A [3] amounted to 60.3 nM; at 5-HT2A it was 28.3 nM; at human 5-HT1A [4] it was 18.6 nM.
Take `CCN(CC)CCc1c[nH]c2ccc(OC)cc12` [Compound 11]: the results for the half-maximal effective concentration (EC50) at 5-HT1A [3], at 5-HT2A and on human 5-HT1A [4] were 37.1 nM, 172 nM and 11 nM, respectively.
`COc1ccc2[nH]cc(CCN3CCCC3)c2c1F` [Compound 11]: the EC50 at 5-HT2A (setting [5]) worked out at 300 nM; at human 5-HT1A [1] (EC50 (nM) Mean Gio(cAMP)-1A), 0.03 nM; at human 5-HT1A [1] (pEC50 Gio(cAMP)-1A), 0.0282 nM; on 5-HT1A [2] (pEC50 BRET Gi1-1A, Table 2), 0.372 nM.
For the molecule `CCCN(CC)CCc1c[nH]c2ccc(OC)cc12` [Compound 12], the 50% effective concentration (EC50) at 5-HT1A [3] worked out at 8.36 nM; on 5-HT2A, 22.1 nM; on human 5-HT1A [4], 2.47 nM.
On to `COc1ccc2[nH]cc(CCN3CCCCC3)c2c1F` [Compound 12], for which the values for the concentration giving a half-maximal response (EC50) at human 5-HT1A [1] (EC50 (nM) Mean Gio(cAMP)-1A) and on 5-HT1A [2] (setting [6]) were 2.42 nM and 8.97 nM, respectively.
`CCCN(CCC)CCc1c[nH]c2ccc(OC)cc12` [Compound 13]: the EC50 was 15.4 nM on 5-HT1A [3]; 20.2 nM on 5-HT2A; 3.57 nM and 4.37 nM on human 5-HT1A [4].
`COc1ccc2[nH]cc(CCN3CC=CC3)c2c1F` [Compound 13]: the EC50 on 5-HT2A (setting [5]) was found to be 120 nM; at human 5-HT1A [1] (pEC50 Gio(cAMP)-1A), 0.00229 nM; on 5-HT1A [2] (pEC50 BRET Gi1-1A, Table 2), 0.219 nM.
In the case of `COc1ccc2[nH]cc(CCN(C)C(C)C)c2c1` [Compound 14], the EC50 worked out at 112 nM at 5-HT1A [3], 17.3 nM at 5-HT2A and 51.8 nM at human 5-HT1A [4].
`COc1ccc2[nH]cc(CCN3C[C@H]4C=C[C@@H]3CC4)c2c1F` [Compound 14]: a half-maximal effect on human 5-HT1A [1] (EC50 (nM) Mean Gio(cAMP)-1A) (EC50) was put at 173 nM.
For `CCCN(CCc1c[nH]c2ccc(OC)cc12)C(C)C` [Compound 15], the half-maximal effective concentration (EC50) on 5-HT1A [3] is 101 nM and 100 nM; on 5-HT2A, 51.2 nM; at human 5-HT1A [4], 26.7 nM.
